Laboratory results reported in US20260327224A1, “SUBSTITUTED PYRIDOTRIAZOLE COMPOUND, AND PREPARATION METHOD THEREFOR AND USE THEREOF” (ORIGIANT PHARMACEUTICAL CO., LTD., priority 2023, published 2026).

target: T1, RIPK1 kinase (Homo sapiens, UniProt Q13546); assay: In vitro RIPK1 kinase assay (Eurofins Kinase Profiler); type: biochemical; conditions: Inhibitory Activity Against RIPK1 Kinase
T1 construct: Eurofins
T1 sequence (Q13546 1-671): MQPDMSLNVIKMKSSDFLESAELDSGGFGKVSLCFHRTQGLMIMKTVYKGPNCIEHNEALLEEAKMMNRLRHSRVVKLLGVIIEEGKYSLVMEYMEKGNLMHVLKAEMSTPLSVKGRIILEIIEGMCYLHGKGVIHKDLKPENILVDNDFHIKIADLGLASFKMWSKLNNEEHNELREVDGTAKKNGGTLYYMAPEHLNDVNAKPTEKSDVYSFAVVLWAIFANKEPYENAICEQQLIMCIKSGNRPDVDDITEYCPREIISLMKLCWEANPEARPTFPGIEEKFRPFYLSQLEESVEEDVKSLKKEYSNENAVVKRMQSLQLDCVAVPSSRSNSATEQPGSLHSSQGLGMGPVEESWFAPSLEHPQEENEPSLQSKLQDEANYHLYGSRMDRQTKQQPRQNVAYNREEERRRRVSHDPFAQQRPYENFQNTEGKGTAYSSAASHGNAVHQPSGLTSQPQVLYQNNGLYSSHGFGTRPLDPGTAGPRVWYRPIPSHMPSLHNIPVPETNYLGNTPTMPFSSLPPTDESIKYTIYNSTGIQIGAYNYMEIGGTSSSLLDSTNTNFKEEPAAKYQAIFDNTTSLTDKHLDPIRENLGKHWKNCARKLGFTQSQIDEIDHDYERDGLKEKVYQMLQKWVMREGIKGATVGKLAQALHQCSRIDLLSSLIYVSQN
Experimental: In Vitro RIPK1 Kinase Assay:
This assay was completed using the Kinase Profiler service provided by Eurofins. The experimental method was as follows: The small molecule compound to be tested (0.001-10 M) and the protein kinase to be tested were incubated with a buffer containing a substrate, 10 mM magnesium acetate, and [γ-^33P-ATP]. The reaction was initiated by adding a Mg\ATPmix. After incubation at room temperature for a period of time, a 3% phosphate solution was added to the buffer to terminate the reaction. Subsequently, 10 μL of the reaction mixture was quantitatively pipetted and dropped onto P30 filter paper. The paper was washed three times with 75 mM phosphate solution and once with methanol. After drying, scintillation fluid was added for scinticounting. The inhibitory activity of the compound was expressed as the half-maximal inhibitory concentration (IC50). The IC50 values were derived by fitting the inhibition rates corresponding to the respective concentration gradients.

| SMILES | IC50 [nM] |
| --- | --- |
| C[C@H](NC(=O)c1cn(C)c2ccc(-c3ccn4nc(NC(=O)CN5CCOCC5(C)C)nc4c3)cc12)c1ccc(F)cc1 [Compound 32] | 10 to 100 |

system: HT-29 cells (colon cancer cells); assay: In vitro assay for protection of HT-29 cells from necroptosis (TNFα/Smac mimetic/Z-VAD-FMK, CCK-8); type: cell-based; conditions: Homo sapiens, Protective Activity Against Necroptosis, TNFα/Smac mimetic/Z-VAD-FMK induced, 24 h
Summary of the method: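 Cells seeded overnight received compound in triplicate, then were induced with TNFα/Smac mimetic/Z-VAD-FMK for 24 h. Viability was read by CCK-8 absorbance at 495 nm after 1-3 h; protection rate normalized to solvent and medium-only controls, EC50 from fitted curve.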

| SMILES | EC50 [nM] |
| --- | --- |
| C[C@H](NC(=O)c1cn(C)c2ccc(-c3ccn4nc(NC(=O)CN5CCOCC5(C)C)nc4c3)cc12)c1ccc(F)cc1 [Compound 32] | < 1 |
| Cn1cc(C(=O)N[C@@H](CF)c2ccc(F)cc2)c2cc(-c3ccn4nc(NC(=O)C5CC5(F)F)nc4c3)ccc21 (stereo partly drawn) [Compound 110] | < 1 |
| COCCOCCOCCOCC(=O)Nc1nc2cc(-c3ccc4c(c3)c(C(=O)N[C@@H](C)c3ccc(F)cc3)cn4C)ccn2n1 [Compound 26] | < 1 |
| CC1CN(CC(=O)Nc2nc3cc(-c4ccc5c(c4)c(C(=O)N[C@@H](C)c4ccc(F)cc4)cn5C)ccn3n2)CCO1 (stereo partly drawn) [Compound 45] | < 1 |
| C[C@H](NC(=O)c1cn(C)c2ccc(-c3ccn4nc(N5CCOCC5)nc4c3)cc12)c1ccc(F)cc1 [Compound 219] | 1 to 10 |
| C[C@H](NC(=O)c1cn(C)c2ccc(-c3ccn4nc(NC(=O)CN5C6CC7CC(C6)C(O)C5C7)nc4c3)cc12)c1ccc(F)cc1 (stereo partly drawn) [Compound 59] | < 1 |
| CC(C(=O)Nc1nn(C)c2ccc(-c3ccn4nc(NC(=O)c5cnn(C)c5)nc4c3)cc12)c1ccc(F)cc1 (stereo not drawn) [Compound 181] | 1000 to 10000 |
| C[C@H](NC(=O)c1cn(C)c2ccc(-c3ccn4nc(NC(=O)CN5CCOCC5)nc4c3)cc12)C(C)(C)C [Compound 90] | 1000 to 10000 |
| Cn1cc(C(=O)N[C@@H](CF)c2cccc(F)c2)c2cc(-c3ccn4nc(NC(=O)[C@H]5CCCO5)nc4c3)ccc21 [Compound 183] | < 1 |
| C[C@H](NC(=O)c1cn(C)c2ccc(-c3ccn4nc(NC(=O)CNCC5CC5)nc4c3)cc12)c1ccc(F)cc1 [Compound 66] | < 1 |
| C[C@H](NC(=O)c1cn(C)c2ccc(-c3ccn4nc(NC(=O)CN5CCN(C(=O)C6CC6)CC5)nc4c3)cc12)c1ccc(F)cc1 [Compound 50] | < 1 |
| CN(C(=O)c1cn(C)c2ccc(-c3ccn4nc(NC(=O)C5CC5)nc4c3)cc12)[C@H]1CCc2cc(F)ccc21 [Compound 205] | 1 to 10 |
| Cn1cc(C(=O)Nc2nc3cc(-c4ccc5c(c4)c(C(=O)N[C@H]4CCc6ccc(F)cc64)cn5C)ccn3n2)cn1 [Compound 122] | 100 to 1000 |
| Cn1cc(C(=O)N[C@@H](CF)c2ccc(F)cc2)c2cc(-c3ccn4nc(NC(=O)N5CCOCC5)nc4c3)ccc21 [Compound 103] | < 1 |
